ChEMBL document CHEMBL5649169 (ChemMedChem, 2018)

Key:
[1] = target: Activator of 90 kDa heat shock protein ATPase homolog 1 (Homo sapiens) (UniProt O95433)
[2] = target: eIF5-mimic protein 1 (Homo sapiens) (UniProt Q9Y6E2)
Cyclin-I (Homo sapiens) = Cyclin-I (Homo sapiens) (UniProt Q14094)
Cullin-4B (Homo sapiens) = Cullin-4B (Homo sapiens) (UniProt Q13620)
[3] = target: Peptidyl-prolyl cis-trans isomerase FKBP3 (Homo sapiens) (UniProt Q00688)
[4] = target: EKC/KEOPS complex subunit LAGE3 (Homo sapiens) (UniProt Q14657)
[5] = target: Large subunit GTPase 1 homolog (Homo sapiens) (UniProt Q9H089)
[6] = target: Oxysterol-binding protein-related protein 3 (Homo sapiens) (UniProt Q9H4L5)
[7] = target: Polyadenylate-binding protein 4 (Homo sapiens) (UniProt Q13310)
[8] = target: Translocon-associated protein subunit delta (Homo sapiens) (UniProt P51571)
[9] = target: Complex I assembly factor ACAD9, mitochondrial (Homo sapiens) (UniProt Q9H845)
[10] = target: Aldo-keto reductase family 1 member D1 (Homo sapiens) (UniProt P51857)
[11] = target: Rho guanine nucleotide exchange factor 1 (Homo sapiens) (UniProt Q92888)
[12] = target: CCAAT/enhancer-binding protein zeta (Homo sapiens) (UniProt Q03701)
[13] = target: Centrosome and spindle pole-associated protein 1 (Homo sapiens) (UniProt Q1MSJ5)
[14] = target: FAD synthase (Homo sapiens) (UniProt Q8NFF5)
[15] = target: Forkhead box protein K1 (Homo sapiens) (UniProt P85037)
Homo sapiens [16] = species on record: Homo sapiens
[17] = target: HLA class I histocompatibility antigen, B alpha chain (Homo sapiens) (UniProt P01889)
[18] = target: Heterogeneous nuclear ribonucleoprotein D-like (Homo sapiens) (UniProt O14979)
[19] = target: Small ribosomal subunit protein mS40 (Homo sapiens) (UniProt Q9Y676)
[20] = target: RNA-binding protein Musashi homolog 2 (Homo sapiens) (UniProt Q96DH6)
[21] = target: Glucocorticoid receptor (Homo sapiens) (UniProt P04150)
[22] = target: Protein kinase C and casein kinase substrate in neurons protein 2 (Homo sapiens) (UniProt Q9UNF0)
[23] = target: Serine/threonine-protein kinase pim-2 (Homo sapiens) (UniProt Q9P1W9)
[24] = target: Pumilio homolog 2 (Homo sapiens) (UniProt Q8TB72)
[25] = target: Replication factor C subunit 1 (Homo sapiens) (UniProt P35251)
Homo sapiens [26] = species on record: Homo sapiens; remark: listed apart in the source
[27] = target: Mitochondrial import inner membrane translocase subunit Tim10 (Homo sapiens) (UniProt P62072)
Homo sapiens [28] = species on record: Homo sapiens; remark: listed apart in the source
Homo sapiens [29] = species on record: Homo sapiens; remark: listed apart in the source
[30] = target: Very long-chain specific acyl-CoA dehydrogenase, mitochondrial (Homo sapiens) (UniProt P49748)
[31] = target: Histone-arginine methyltransferase CARM1 (Homo sapiens) (UniProt Q86X55)
[32] = target: Chloride intracellular channel protein 4 (Homo sapiens) (UniProt Q9Y696)
[33] = target: Conserved oligomeric Golgi complex subunit 6 (Homo sapiens) (UniProt Q9Y2V7)
[34] = target: Probable rRNA-processing protein EBP2 (Homo sapiens) (UniProt Q99848)
[35] = target: Heterogeneous nuclear ribonucleoprotein R (Homo sapiens) (UniProt O43390)
[36] = target: 3-hydroxyacyl-CoA dehydrogenase type-2 (Homo sapiens) (UniProt Q99714)
[37] = target: Hypoxia up-regulated protein 1 (Homo sapiens) (UniProt Q9Y4L1)
[38] = target: ER lumen protein-retaining receptor 1 (Homo sapiens) (UniProt P24390)
[39] = target: E3 ubiquitin-protein ligase listerin (Homo sapiens) (UniProt O94822)
[40] = target: Methylcrotonoyl-CoA carboxylase beta chain, mitochondrial (Homo sapiens) (UniProt Q9HCC0)
[41] = target: NADH dehydrogenase [ubiquinone] 1 alpha subcomplex subunit 13 (Homo sapiens) (UniProt Q9P0J0)
[42] = target: Protein-L-isoaspartate(D-aspartate) O-methyltransferase (Homo sapiens) (UniProt P22061)
[43] = target: RNA-splicing ligase RtcB homolog (Homo sapiens) (UniProt Q9Y3I0)
[44] = target: Solute carrier family 25 member 3 (Homo sapiens) (UniProt Q00325)
[45] = target: Elongation factor Tu, mitochondrial (Homo sapiens) (UniProt P49411)
Note: assay method not described here.

RNA-binding protein Musashi homolog 2 (Homo sapiens), sequence (Q96DH6 whole entry): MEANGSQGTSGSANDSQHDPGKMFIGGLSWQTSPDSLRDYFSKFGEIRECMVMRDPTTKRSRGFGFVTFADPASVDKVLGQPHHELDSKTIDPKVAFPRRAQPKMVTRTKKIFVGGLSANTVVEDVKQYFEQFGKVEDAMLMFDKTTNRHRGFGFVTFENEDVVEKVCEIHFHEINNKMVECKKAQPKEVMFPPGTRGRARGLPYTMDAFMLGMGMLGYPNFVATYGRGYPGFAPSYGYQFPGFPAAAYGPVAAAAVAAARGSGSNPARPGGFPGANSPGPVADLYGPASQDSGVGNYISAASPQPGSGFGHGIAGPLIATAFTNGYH
Probable rRNA-processing protein EBP2 (Homo sapiens), sequence (Q99848 whole entry): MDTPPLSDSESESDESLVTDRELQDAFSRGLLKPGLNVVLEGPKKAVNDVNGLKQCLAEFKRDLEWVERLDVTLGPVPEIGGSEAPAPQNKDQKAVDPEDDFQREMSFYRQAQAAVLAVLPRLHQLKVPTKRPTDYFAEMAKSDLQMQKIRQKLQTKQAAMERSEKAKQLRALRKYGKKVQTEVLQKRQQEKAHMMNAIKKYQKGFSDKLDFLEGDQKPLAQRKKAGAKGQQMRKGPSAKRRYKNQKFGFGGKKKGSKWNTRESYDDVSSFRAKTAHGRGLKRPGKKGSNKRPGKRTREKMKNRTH
Protein-L-isoaspartate(D-aspartate) O-methyltransferase (Homo sapiens), sequence (P22061 whole entry): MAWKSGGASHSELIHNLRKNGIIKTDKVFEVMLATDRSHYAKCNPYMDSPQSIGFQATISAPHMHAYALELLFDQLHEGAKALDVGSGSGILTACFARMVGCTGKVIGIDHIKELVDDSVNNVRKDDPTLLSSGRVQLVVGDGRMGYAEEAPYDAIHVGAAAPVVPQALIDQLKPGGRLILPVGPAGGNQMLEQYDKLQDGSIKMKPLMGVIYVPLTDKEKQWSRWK
Polyadenylate-binding protein 4 (Homo sapiens), sequence (Q13310 whole entry): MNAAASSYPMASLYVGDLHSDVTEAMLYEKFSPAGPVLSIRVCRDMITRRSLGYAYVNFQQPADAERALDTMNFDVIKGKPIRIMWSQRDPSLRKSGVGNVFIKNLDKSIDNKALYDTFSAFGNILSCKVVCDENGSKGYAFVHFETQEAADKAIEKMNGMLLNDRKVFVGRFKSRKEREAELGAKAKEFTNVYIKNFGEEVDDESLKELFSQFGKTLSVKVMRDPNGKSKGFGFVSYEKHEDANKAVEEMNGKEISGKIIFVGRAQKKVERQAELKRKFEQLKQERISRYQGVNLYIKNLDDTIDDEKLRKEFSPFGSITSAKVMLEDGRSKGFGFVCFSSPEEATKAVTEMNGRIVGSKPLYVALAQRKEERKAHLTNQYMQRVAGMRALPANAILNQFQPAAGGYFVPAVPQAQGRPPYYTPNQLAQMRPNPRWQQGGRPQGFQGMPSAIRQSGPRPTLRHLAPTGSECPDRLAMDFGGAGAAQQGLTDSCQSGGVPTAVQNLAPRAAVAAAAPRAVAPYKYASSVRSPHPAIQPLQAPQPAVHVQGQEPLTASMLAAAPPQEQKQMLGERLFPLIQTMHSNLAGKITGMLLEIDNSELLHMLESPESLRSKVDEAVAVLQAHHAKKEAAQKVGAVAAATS
Large subunit GTPase 1 homolog (Homo sapiens), sequence (Q9H089 whole entry): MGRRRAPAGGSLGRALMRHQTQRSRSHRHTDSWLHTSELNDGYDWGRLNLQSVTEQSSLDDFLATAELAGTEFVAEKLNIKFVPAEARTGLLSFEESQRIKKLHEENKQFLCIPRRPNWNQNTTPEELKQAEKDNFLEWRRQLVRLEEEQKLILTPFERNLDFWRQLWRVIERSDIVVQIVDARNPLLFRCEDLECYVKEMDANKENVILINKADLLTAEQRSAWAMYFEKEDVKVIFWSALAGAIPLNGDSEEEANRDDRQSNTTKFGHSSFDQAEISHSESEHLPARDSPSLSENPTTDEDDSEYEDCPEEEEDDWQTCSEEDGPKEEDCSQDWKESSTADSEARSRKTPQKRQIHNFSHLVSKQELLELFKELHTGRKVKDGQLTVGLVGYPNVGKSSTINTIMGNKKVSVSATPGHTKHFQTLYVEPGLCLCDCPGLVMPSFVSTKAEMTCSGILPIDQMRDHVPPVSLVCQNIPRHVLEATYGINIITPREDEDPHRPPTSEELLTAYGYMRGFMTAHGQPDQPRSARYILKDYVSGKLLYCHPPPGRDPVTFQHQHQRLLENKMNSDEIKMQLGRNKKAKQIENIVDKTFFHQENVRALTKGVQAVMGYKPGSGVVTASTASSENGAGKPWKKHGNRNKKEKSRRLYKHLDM
Replication factor C subunit 1 (Homo sapiens), sequence (P35251 whole entry): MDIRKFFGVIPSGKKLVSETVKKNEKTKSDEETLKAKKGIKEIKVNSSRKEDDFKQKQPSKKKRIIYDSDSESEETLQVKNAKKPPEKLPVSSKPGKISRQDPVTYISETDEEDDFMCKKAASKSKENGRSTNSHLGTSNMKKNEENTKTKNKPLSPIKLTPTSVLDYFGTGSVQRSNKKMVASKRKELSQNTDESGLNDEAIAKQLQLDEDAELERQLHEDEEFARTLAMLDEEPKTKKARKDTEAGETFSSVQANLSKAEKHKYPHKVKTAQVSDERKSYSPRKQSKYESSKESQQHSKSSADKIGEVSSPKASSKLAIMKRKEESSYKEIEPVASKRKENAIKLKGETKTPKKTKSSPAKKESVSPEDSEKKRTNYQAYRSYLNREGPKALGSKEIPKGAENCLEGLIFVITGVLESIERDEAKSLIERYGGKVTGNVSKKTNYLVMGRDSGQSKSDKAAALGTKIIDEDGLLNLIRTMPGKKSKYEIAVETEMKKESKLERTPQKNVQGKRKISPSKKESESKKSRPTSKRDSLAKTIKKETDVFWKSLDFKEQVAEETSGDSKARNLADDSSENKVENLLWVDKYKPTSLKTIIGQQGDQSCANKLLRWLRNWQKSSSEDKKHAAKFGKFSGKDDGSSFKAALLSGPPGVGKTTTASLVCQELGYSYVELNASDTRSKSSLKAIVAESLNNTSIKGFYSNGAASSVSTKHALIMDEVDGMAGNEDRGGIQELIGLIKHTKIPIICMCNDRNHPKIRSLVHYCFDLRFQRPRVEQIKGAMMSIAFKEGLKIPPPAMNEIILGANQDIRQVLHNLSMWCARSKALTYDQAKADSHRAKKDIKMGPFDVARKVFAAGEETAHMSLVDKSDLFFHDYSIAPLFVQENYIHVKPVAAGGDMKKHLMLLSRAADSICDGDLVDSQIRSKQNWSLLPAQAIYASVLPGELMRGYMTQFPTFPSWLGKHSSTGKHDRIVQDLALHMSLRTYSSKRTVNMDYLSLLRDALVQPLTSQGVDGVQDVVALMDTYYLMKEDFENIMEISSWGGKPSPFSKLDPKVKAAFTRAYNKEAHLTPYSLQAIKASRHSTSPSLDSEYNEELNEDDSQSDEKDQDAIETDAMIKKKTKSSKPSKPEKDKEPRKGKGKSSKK
E3 ubiquitin-protein ligase listerin (Homo sapiens), sequence (O94822 whole entry): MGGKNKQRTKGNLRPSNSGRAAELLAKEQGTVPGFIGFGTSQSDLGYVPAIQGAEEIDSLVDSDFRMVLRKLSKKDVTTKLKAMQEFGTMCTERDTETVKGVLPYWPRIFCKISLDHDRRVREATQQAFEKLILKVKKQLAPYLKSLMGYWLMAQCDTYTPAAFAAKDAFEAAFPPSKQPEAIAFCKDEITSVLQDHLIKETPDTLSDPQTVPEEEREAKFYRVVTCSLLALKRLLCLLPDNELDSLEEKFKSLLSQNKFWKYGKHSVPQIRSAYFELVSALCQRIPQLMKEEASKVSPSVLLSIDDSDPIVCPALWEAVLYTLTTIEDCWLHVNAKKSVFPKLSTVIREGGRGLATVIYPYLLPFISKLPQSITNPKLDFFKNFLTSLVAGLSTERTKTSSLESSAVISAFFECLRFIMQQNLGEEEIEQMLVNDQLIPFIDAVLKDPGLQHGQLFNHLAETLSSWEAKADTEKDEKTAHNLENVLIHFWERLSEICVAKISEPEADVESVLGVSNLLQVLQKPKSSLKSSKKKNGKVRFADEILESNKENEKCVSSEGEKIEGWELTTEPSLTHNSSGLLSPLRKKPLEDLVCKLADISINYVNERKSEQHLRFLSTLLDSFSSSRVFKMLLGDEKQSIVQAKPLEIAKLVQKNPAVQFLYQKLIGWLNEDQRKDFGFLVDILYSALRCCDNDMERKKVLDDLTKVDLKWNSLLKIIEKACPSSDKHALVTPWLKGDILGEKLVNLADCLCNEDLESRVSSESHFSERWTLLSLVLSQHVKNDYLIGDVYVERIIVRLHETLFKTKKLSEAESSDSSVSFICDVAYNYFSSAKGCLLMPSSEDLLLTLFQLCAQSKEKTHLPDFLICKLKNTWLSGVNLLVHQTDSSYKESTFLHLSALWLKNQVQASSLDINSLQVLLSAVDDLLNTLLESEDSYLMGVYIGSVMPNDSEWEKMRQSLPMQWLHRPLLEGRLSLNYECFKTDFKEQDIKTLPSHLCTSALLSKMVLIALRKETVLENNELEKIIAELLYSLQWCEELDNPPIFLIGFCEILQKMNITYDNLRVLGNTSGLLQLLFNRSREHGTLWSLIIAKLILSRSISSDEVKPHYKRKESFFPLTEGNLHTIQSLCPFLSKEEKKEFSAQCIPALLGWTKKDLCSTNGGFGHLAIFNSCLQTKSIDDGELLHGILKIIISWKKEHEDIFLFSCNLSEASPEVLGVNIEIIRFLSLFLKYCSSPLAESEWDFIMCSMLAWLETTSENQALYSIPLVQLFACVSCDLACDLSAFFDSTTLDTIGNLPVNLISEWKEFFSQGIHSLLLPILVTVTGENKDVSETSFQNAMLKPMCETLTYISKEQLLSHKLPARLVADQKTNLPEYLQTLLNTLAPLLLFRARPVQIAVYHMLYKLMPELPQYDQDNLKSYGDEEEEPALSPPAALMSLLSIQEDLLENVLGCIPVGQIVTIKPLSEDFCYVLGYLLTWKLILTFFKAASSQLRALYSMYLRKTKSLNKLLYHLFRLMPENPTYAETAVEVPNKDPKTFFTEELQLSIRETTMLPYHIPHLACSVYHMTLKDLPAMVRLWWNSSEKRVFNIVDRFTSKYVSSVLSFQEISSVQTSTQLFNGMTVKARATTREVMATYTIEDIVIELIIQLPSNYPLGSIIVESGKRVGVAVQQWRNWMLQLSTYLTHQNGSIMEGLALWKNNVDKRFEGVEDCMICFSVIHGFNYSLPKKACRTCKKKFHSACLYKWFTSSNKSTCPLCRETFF

Q: For `Cc1ccc(C(=O)Nc2cccc(C(F)(F)F)c2)cc1Nc1nc(-c2cccnc2)nc2c1cnn2C`, which ED50 [1] is on record?
A: Its ED50 is 44800 nM.

Q: What about the ED50 [2] of the same compound?
A: Its ED50 is 16.7 nM.

Q: And the ED50 (Cyclin-I (Homo sapiens))?
A: The ED50 was 26500 nM.

Q: And the ED50 (Cullin-4B (Homo sapiens))?
A: The ED50 was 1760 nM.

Q: And the ED50 [3]?
A: The ED50 was 12000 nM.

Q: And the ED50 [4]?
A: The ED50 was 131000 nM.

Q: What about the ED50 [5] of the same compound?
A: Its ED50 is 0.521 nM.

Q: And the ED50 [6]?
A: The ED50 was 946 nM.

Q: And the ED50 [7]?
A: Its ED50 is 12100 nM.

Q: What about the ED50 [8] of the same compound?
A: The ED50 was 217000 nM.

Q: And the ED50 [9]?
A: Its ED50 is 42800 nM.

Q: And the ED50 [10]?
A: The ED50 was 71.9 nM.

Q: What about the ED50 [11] of the same compound?
A: Its ED50 is 1700 nM.

Q: And the ED50 [12]?
A: The ED50 was 3240 nM.

Q: What about the ED50 [13] of the same compound?
A: Its ED50 is 1410 nM.

Q: And the ED50 [14]?
A: Its ED50 is 998 nM.

Q: What about the ED50 [15] of the same compound?
A: Its ED50 is 3.59 nM.

Q: What about the ED50 (Homo sapiens [16]) of the same compound?
A: The ED50 was 11800 nM.

Q: What about the ED50 [17] of the same compound?
A: The ED50 was 9.82 nM.

Q: And the ED50 [18]?
A: Its ED50 is 68.5 nM.

Q: And the ED50 [19]?
A: The ED50 was 15600 nM.

Q: And the ED50 [20]?
A: Its ED50 is 1.24 nM.

Q: What about the ED50 [21] of the same compound?
A: Its ED50 is 53300 nM.

Q: What about the ED50 [22] of the same compound?
A: The ED50 was 579 nM.

Q: What about the ED50 [23] of the same compound?
A: The ED50 was 12200 nM.

Q: And the ED50 [24]?
A: The ED50 was 526 nM.

Q: And the ED50 [25]?
A: Its ED50 is 132 nM.

Q: What about the ED50 (Homo sapiens [26]) of the same compound?
A: Its ED50 is 29.9 nM.

Q: What about the ED50 [27] of the same compound?
A: Its ED50 is 27.9 nM.

Q: What about the ED50 (Homo sapiens [28]) of the same compound?
A: Its ED50 is 1.71 nM.

Q: What about the ED50 (Homo sapiens [29]) of the same compound?
A: The ED50 was 3230 nM.

Q: Which ED50 [30] does the source give for `Cc1ccc(C(=O)Nc2cccc(C(F)(F)F)c2)cc1Nc1nc(-c2cccnc2)nc2nn(C)cc12` here?
A: The ED50 was 51 nM.

Q: What about the ED50 [31] of the same compound?
A: The ED50 was 113 nM.

Q: And the ED50 [32]?
A: The ED50 was 53.4 nM.

Q: What about the ED50 [33] of the same compound?
A: Its ED50 is 139000 nM.

Q: What about the ED50 [34] of the same compound?
A: The ED50 was 43.2 nM.

Q: And the ED50 [35]?
A: The ED50 was 8.23 nM.

Q: And the ED50 [36]?
A: Its ED50 is 50.8 nM.

Q: And the ED50 [37]?
A: The ED50 was 52.4 nM.

Q: What about the ED50 [38] of the same compound?
A: Its ED50 is 0.253 nM.

Q: What about the ED50 [39] of the same compound?
A: Its ED50 is 753 nM.

Q: And the ED50 [40]?
A: The ED50 was 102 nM.

Q: What about the ED50 [41] of the same compound?
A: The ED50 was 5.85 nM.

Q: What about the ED50 [42] of the same compound?
A: Its ED50 is 393 nM.

Q: What about the ED50 [43] of the same compound?
A: The ED50 was 38.3 nM.

Q: What about the ED50 [44] of the same compound?
A: Its ED50 is 8080 nM.

Q: And the ED50 [45]?
A: Its ED50 is 32700 nM.
